Molecules are shown by their SMILES.

One may read the IC50 as the midpoint of a concentration-inhibition curve. A lower IC50 goes with higher potency.

Chain of Human neutrophil elastase (P08246 30-267): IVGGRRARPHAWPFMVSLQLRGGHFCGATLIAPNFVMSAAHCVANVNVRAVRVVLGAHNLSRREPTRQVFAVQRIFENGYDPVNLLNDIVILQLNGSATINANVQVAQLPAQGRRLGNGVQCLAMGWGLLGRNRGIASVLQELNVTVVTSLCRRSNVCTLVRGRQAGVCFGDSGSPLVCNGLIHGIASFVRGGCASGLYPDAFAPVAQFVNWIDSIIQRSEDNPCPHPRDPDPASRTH

The assay addresses Human neutrophil elastase (Homo sapiens (Human), UniProt P08246). The assay is described as follows: Human Neutrophil Elastase Assay. It counts as biochemical. The settings on record: substrate MeOSuc-Ala-Ala-Pro-Val-AMC 250 μM, pH 7.5, fluorescence. On the procedure: Human Neutrophil Elastase Assay
All other materials were of the highest grade commercially available.
The following buffers were used: Compound buffer: 100 mM Tris, 500 mM NaCl, adjusted to pH 7.5; Assay buffer: 100 mM Tris, 500 mM NaCl, adjusted to pH 7.5, containing 0.01% BSA.
Assay conditions: Test compounds were prediluted in DMSO and subsequently in compound buffer (5% DMSO final). […] After inactivation of the enzyme, fluorescence intensities were measured at 380 nm excitation and 460 nm emission wavelengths.
Each plate contains wells with a high value control (DMSO+enzyme+substrate) and wells with a low value control (DMSO+inactivated enzyme+substrate). IC50 values were estimated using a sigmoidal concentration response curve with variable slope. Means of low values were taken as 0%, means of high values as 100%. IC50 values of selected compound in the Neutrophil Elastase assay: […]
For `Cc1c(-c2cccc(C(F)(F)F)c2)c(=O)c(C(=O)NCc2ccc([S+](C)[O-])cc2)cn1C(C)C` (racemic) [Example 27.1, 1-Isopropyl-6-methyl-4-oxo-5-(3-trifluoromethyl-phenyl)-1,4-dihydro-pyridine-3-carboxylic acid 4-methanesulfinyl-benzylamide], the IC50 is 9 nM. Then `Cc1c(-c2cccc(C(F)(F)F)c2)c(=O)c(C(=O)NCc2ccc([S+](C)[O-])cc2)cn1C(C)C` (single isomer, unassigned) [Example 27.1B], with 30 nM.

As for `CCn1cc(C(=O)NCc2ccc(S(C)(=O)=O)cc2)c(=O)c(-c2cccc(C(F)(F)F)c2)c1C` [Example 1.1, 1-Ethyl-6-methyl-4-oxo-5-(3-trifluoromethyl-phenyl)-1,4-dihydro-pyridine-3-carboxylic acid 4-methanesulfonyl-benzylamide], half-maximal inhibition (IC50) was put at 33 nM. Then `Cc1c(-c2cccc(C(F)(F)F)c2)c(=O)c(C(=O)NCc2ccc(S(C)(=O)=O)cc2)cn1C(C)C` [Example 1.2, 1-isopropyl-6-methyl-4-oxo-5-(3-trifluoromethyl-phenyl)-1,4-dihydro-pyridine-3-carboxylic acid 4-methanesulfonyl-benzylamide], with 12 nM; and `CCCn1cc(C(=O)NCc2ccc(S(C)(=O)=O)cc2)c(=O)c(-c2cccc(C(F)(F)F)c2)c1C` [Example 1.3], with 28 nM.

`Cc1c(-c2cccc(C(F)(F)F)c2)c(=O)c(C(=O)NCc2ccc(S(C)(=O)=O)cc2)cn1CC1CC1(F)F` (centres unmarked) [Example 1.7] registered a concentration for half-maximal inhibition (IC50) of 37 nM. For `CCn1cc(C(=O)NCc2ccc(S(C)(=O)=O)cn2)c(=O)c(-c2cccc(C(F)(F)F)c2)c1C` [Example 2.1], the IC50 came out at 57 nM.

`CCCn1cc(C(=O)NCc2ccc(S(C)(=O)=O)cn2)c(=O)c(-c2cccc(C(F)(F)F)c2)c1C` [Example 2.2]: the 50% inhibitory concentration (IC50) amounted to 20 nM. With `Cc1c(-c2cccc(C(F)(F)F)c2)c(=O)c(C(=O)NCc2ccc(S(C)(=O)=O)cn2)cn1CC(C)C` [Example 2.3], the midpoint of inhibition, the IC50, lay at 30 nM. As for `Cc1c(-c2cccc(C(F)(F)F)c2)c(=O)c(C(=O)NCc2ccc(S(C)(=O)=O)cn2)cn1CC1CCOC1` (centres unmarked) [Example 2.4], inhibition was half-maximal at 73 nM (IC50). Then `Cc1nnc(CNC(=O)c2cn(C(C)C)c(C)c(-c3cccc(C(F)(F)F)c3)c2=O)o1` [Example 3.1, 1-Isopropyl-6-methyl-4-oxo-5-(3-trifluoromethyl-phenyl)-1,4-dihydro-pyridine-3-carboxylic acid (5-methyl-[1,3,4]oxadiazol-2-ylmethyl)-amide], with 38 nM.

Take `Cc1c(-c2cccc(C(F)(F)F)c2)c(=O)c(C(=O)NCc2ccncc2)cn1C(C)C` [Example 3.2]: the IC50 was 97 nM. Then `Cc1c(-c2cccc(C(F)(F)F)c2)c(=O)c(C(=O)NCc2cccnn2)cn1C(C)C` [Example 3.3], with 90 nM; and `Cc1c(-c2cccc(C(F)(F)F)c2)c(=O)c(C(=O)NCc2cnn(C)c2)cn1C(C)C` [Example 3.4], with 62 nM. Then `Cc1c(-c2cccc(C(F)(F)F)c2)c(=O)c(C(=O)NCc2ccc(C#N)cc2)cn1C(C)C` [Example 3.5], with 64 nM; and `Cc1c(-c2cccc(C(F)(F)F)c2)c(=O)c(C(=O)NCc2cccc(S(C)(=O)=O)c2)cn1C(C)C` [Example 3.6], with 89 nM. Then `Cc1c(-c2cccc(C(F)(F)F)c2)c(=O)c(C(=O)NCc2ccc(S(N)(=O)=O)cc2)cn1C(C)C` [Example 3.7], with 40 nM.

In the case of `Cc1c(-c2cccc(C(F)(F)F)c2)c(=O)c(C(=O)NCc2ccc(N3CCNC3=O)cc2)cn1C(C)C` [Example 3.8], the IC50 stood at 65 nM. Then `Cc1c(-c2cccc(C(F)(F)F)c2)c(=O)c(C(=O)NCc2ccc(CN3CCCC3=O)cc2)cn1C(C)C` [Example 3.9], with 20 nM; and `Cc1c(-c2cccc(C(F)F)c2)c(=O)c(C(=O)NCc2cccnn2)cn1C(C)C` [Example 4.1], with 98 nM; and `Cc1c(-c2cccc(C(F)F)c2)c(=O)c(C(=O)NCc2cnn(C)c2)cn1C(C)C` [Example 4.2], with 60 nM. `Cc1nnc(CNC(=O)c2cn(C(C)C)c(C)c(-c3cccc(C(F)F)c3)c2=O)o1` [Example 4.3] showed an IC50 of 27 nM. Then `Cc1c(-c2cccc(C(F)F)c2)c(=O)c(C(=O)NCc2cccc(=O)[nH]2)cn1C(C)C` [Example 4.4], with 72 nM; and `Cc1c(-c2cccc(C(F)F)c2)c(=O)c(C(=O)NCc2ccc(C#N)cc2)cn1C(C)C` [Example 4.5], with 51 nM. Then `Cc1c(-c2cccc(C(F)F)c2)c(=O)c(C(=O)NCc2cn3ccccc3n2)cn1C(C)C` [Example 4.6], with 28 nM; and `Cc1c(-c2cccc(C(F)F)c2)c(=O)c(C(=O)NCc2ccc3c(cnn3C)c2)cn1C(C)C` [Example 4.7], with 45 nM. Then `Cc1c(-c2cccc(C(F)F)c2)c(=O)c(C(=O)NCc2ccc([S+](C)[O-])cc2)cn1C(C)C` (centres unmarked) [Example 4.8], with 10 nM. In turn, `Cc1c(-c2cccc(C(F)F)c2)c(=O)c(C(=O)NCc2cccc(S(C)(=O)=O)c2)cn1C(C)C` [Example 4.9] returned an IC50 of 63 nM. Then `Cc1c(-c2cccc(C(F)F)c2)c(=O)c(C(=O)NCc2ccc(S(N)(=O)=O)cc2)cn1C(C)C` [Example 4.10], with 42 nM; and `Cc1c(-c2cccc(C(F)F)c2)c(=O)c(C(=O)NCc2ccc(Cn3ccnc3)cc2)cn1C(C)C` [Example 4.11], with 18 nM; and `Cc1c(-c2cccc(C(F)F)c2)c(=O)c(C(=O)NCc2ccc(N3CCNC3=O)cc2)cn1C(C)C` [Example 4.12], with 69 nM. Then `Cc1c(-c2cccc(C(F)F)c2)c(=O)c(C(=O)NCc2ccc(CN3CCCC3=O)cc2)cn1C(C)C` [Example 4.13], with 20 nM; and `Cc1c(-c2ccnc(C(F)(F)F)c2)c(=O)c(C(=O)NCc2ccc(S(C)(=O)=O)cc2)cn1C(C)C` [Example 5.1, 1-Isopropyl-2-methyl-4-oxo-2′-trifluoromethyl-1,4-dihydro-[3,4]bipyridinyl-5-carboxylic acid 4-methanesulfonyl-benzylamide], with 72 nM. Then `Cc1c(-c2ccc(F)c(C(F)(F)F)c2)c(=O)c(C(=O)NCc2ccc(S(C)(=O)=O)cc2)cn1C(C)C` [Example 5.2], with 19 nM.

Consider `Cc1c(-c2cc(Cl)cc(C(F)(F)F)c2)c(=O)c(C(=O)NCc2ccc(S(C)(=O)=O)cc2)cn1C(C)C` [Example 5.3], for which half-maximal inhibition (IC50) required 48 nM. As for `Cc1c(-c2ccc(F)c(C(F)F)c2)c(=O)c(C(=O)NCc2ccc(S(C)(=O)=O)cc2)cn1C(C)C` [Example 5.4], the IC50 amounted to 61 nM. Then `Cc1c(-c2cncc(C(F)(F)F)c2)c(=O)c(C(=O)NCc2ccc(S(C)(=O)=O)cc2)cn1C(C)C` [Example 5.5], with 91 nM; and `Cc1c(-c2cccc(C(F)(F)F)c2)c(=O)c(C(=O)NCc2ccc(S(C)(=O)=O)cc2)cn1C1CC1` [Example 6, 1-Cyclopropyl-6-methyl-4-oxo-5-(3-trifluoromethyl-phenyl)-1,4-dihydro-pyridine-3-carboxylic acid 4-methanesulfonyl-benzylamide], with 30 nM.
